From patent US20230003721A1, “MITOTHERAPEUTICS FOR THE TREATMENT OF BRAIN DISORDERS” (The University of Florida Research Foundation, Inc., priority 2019, published 2023)
Structures can show the parent of a compound that is named as a salt. Where two headings read alike, the source gives them in different places.

Experiments:
[1] = test system: primary forebrain neurons; assay: cells; details: 24 h; for EC50: Mus musculus, Neuron; for Dendritic Mt CA / Neurite Area: rescreen, 12.5 μM, vs DMSO wells
Description: Primary forebrain cell culture and maintenance. Forebrains of P0 Mt or Mt/Ai14 pups without olfactory bulbs and meninges were collected and placed in ice cold Ca^2+ and Mg^2+ free HBSS supplemented with 2 μg/ml gentamicin, 25 mM D-glucose, 1 mM pyruvate and 20 mM HEPES. Brain tissue was digested with 0.6 mg/ml papain at 37° C. for 20 min. Forebrains were washed with plating media [Neurobasal (Gibco), 5% FBS, 4 mM GlutaMAX (Gibco), 2 μg/ml gentamicin]. The tissue was gently triturated, allowed to settle and the supernatant was filtered through a 40 μm mesh-sized cell strainer. Cells were centrifuged at 420×g for 4 min and resuspended in plating media. 15,000 cells per well were plated with 2×10^8 viral particles/ml onto black Greiner μClear (Cat #781946) or Ultra-Low Base Aurora with evaporation barrier (Cat #ABE201201B) 384-well plates (80 μl/well) pre-coated with poly-D-lysine for the primary screen and rescreen, respectively. Plating and media changes were performed using an automated Biomek FX^P liquid handling workstation. Four hr after plating, 75% of the plating media was replaced by feeding media [Neurobasal-A (Gibco), 4 mM GlutaMAX (Gibco), 2 μg/ml gentamicin, 2% B27 (Gibco)]. At DIV4, 50% of the media was exchanged with fresh feeding media supplemented with 16 μM 5-Fluoro-2′-deoxyuridine (FUdR) to prevent glial cell over-growth. At DIV8 and DIV12, additional 50% media changes were made without FUdR. Cells were maintained at 37° C. and 5% CO2; plates were topped with Breathe-Easy adhesive membranes (Greiner plates) to minimize evaporation.
Compounds and compound transfer.
Imaging. Images were captured using a GE Incell 6000 system (60× objective, 0.95 NA, 16-bit images) equipped with environmental control (37° C., 5% CO2). Mt-GFP (green channel) was imaged by confocal imaging (3 slices, Δz=0.7 μm, aperture=1.0 AU, λexc=488 nm, λem=515-535 nm). Cyto-tdTomato (red channel) and MitoTracker Orange (red channel) were imaged using confocal mode (3 slices, Δz=0.7 μm, aperture=1.0 AU, λexc=561 nm, λem=569-641 nm, MitoTracker Orange) or with widefield mode (Cyto-tdTomato). TMRM imaged for the co-localization experiments with Mt-GFP was imaged using the confocal mode (3 slices, […] aperture=1.0, λexc=488, λem=569-641 nm). For the live-dead assay, primary neurons were imaged with a 20× (widefield mode, NA 0.45) objective using λexc=561 nm and λem=569-641 nm for the propidium iodide stained dead cells (red channel), and λexc=488 nm and λem=515-535 nm for the fluorescein diacetate stained live cells (green channel). 10 fields were collected from each well, and 4 wells were imaged/condition in the live-dead assay. For all other experiments, 4 fields/well were imaged unless otherwise stated.
Automated data analysis pipeline. Most experiments utilized only Mt-GFP; some utilized both Mt-GFP and Cyto-tdTomato. The Z-projected images were preprocessed using a custom Fiji macro. For preprocessing of Mt-GFP images: background was subtracted (rolling ball, radius=3), images were median filtered (radius=1) and somatic mitochondria were removed. For removal of the somatic mitochondria, they were first segmented and then a somatic mitochondrial mask overlaid on the image.

primary neurons [2] = assay: TMRM fluorescence assay of inner mitochondrial membrane potential (ΔΨm); details: for TMRM Primary: primary screen; for TMRM Primary / hit in TMRM primary screen when assayed at 4 h: 12.5 μM; for TMRM Primary / TMRM Rescreen: 24 h; for Emax / EC50: Mus musculus, Primary neuron; for Emax: read-out: TMRM (Effect-size); for EC50: read-out: TMRM-EC50
primary neurons [3] = assay: CellTiter-Glo luminescence-based ATP assay; format: cell-based, mouse; details: for ATP: ATP orthogonal screen, 24 h; for EC50 / Emax: Mus musculus, Primary neuron, dose response; for EC50: 15 concentrations from 6 nM to 100 uM; for Emax: maximal percent increase relative to in-plate DMSO controls, read-out: ATP (Effect-size)
Method in brief: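 Primary neurons treated from DIV13 for 24 h with compound or DMSO. After part of the medium was removed, CellTiter-Glo reagent was added; plates were shaken 10 min at 200 rpm, kept 2 min in the dark at room temperature, and luminescence read as total ATP.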

[4] = read-out: Health (Ax Mt Circularity) EC50

| Compound | TMRM Primary (primary neurons [2]) [Z-scores] | TMRM Rescreen (primary neurons [2]) [Z-scores] | ATP (primary neurons [3]) [Z-scores] | further results |
| --- | --- | --- | --- | --- |
| COc1ccccc1-c1coc2cc(O)ccc2c1=O [7-HYDROXY-2′-METHOXYISOFLAVONE] |  |  |  | EC50 [1, 4]: 200 nM; EC50 ([1]; read-out: Mt Content (Dend Mt CA) EC50): > 25000 nM |
| COc1ccc2c(c1)[nH]c1c(C)nccc12 [HARMINE] |  |  |  | EC50 ([1]; read-out: Elongation (Dend Mt length) EC50): 1700 nM; EC50 [1, 4]: > 25000 nM; EC50 ([1]; read-out: Sprouting (Neurite Area) EC50): > 25000 nM; Dendritic Mt CA [1]: 3.65 robust Z-scores; Neurite Area [1]: −1.63 robust Z-scores |
| O=c1c(O)c(-c2ccccc2)oc2cccc(O)c12 [3,5-DIHYDROXYFLAVONE] |  |  |  | Dendritic Mt CA [1]: 3.43 robust Z-scores; Neurite Area [1]: 1.20 robust Z-scores |
| CCCCCOC(=O)Nc1nc(=O)n([C@@H]2O[C@H](C)[C@@H](O)[C@H]2O)cc1F [CAPECITABINE] |  |  |  | Dendritic Mt CA [1]: 2.88 robust Z-scores; Neurite Area [1]: 0.58 robust Z-scores |
| CC(C)c1ccc2c(c1)CC[C@H]1[C@](C)(C(N)=O)CCC[C@]21C [dehydroabietamide] | 3.42 | 5.12 | 4.15 |  |
| O=C1CCc2ccc(OCCCCN3CCN(c4cccc(Cl)c4Cl)CC3)cc2N1 [aripiprazole] | 2.98 | 7.76 | 3.66 |  |
| C/C(=C\CO)CCC[C@H](C)CCC[C@H](C)CCCC(C)C [phytol] | 3.42 | 2.70 | 4.63 |  |
| Cc1nc2sccn2c(=O)c1CCN1CCC(=C(c2ccc(F)cc2)c2ccc(F)cc2)CC1 [ritanserin] | 5.25 | 5.83 | 4.40 |  |
| COCCOC(=O)C1=C(C)NC(C)=C(C(=O)OC(C)C)C1c1cccc([N+](=O)[O-])c1 (centres unmarked) [nimodipine] | 4.40 | 3.98 | 6.53 |  |
| N=c1ccn2c(n1)O[C@H]1[C@H](O)[C@@H](CO)O[C@H]12 [ancitabine hydrochloride] | 3.04 | 1.36 | 0.14 |  |
| OC(c1cc(C(F)(F)F)nc2c(C(F)(F)F)cccc12)C1CCCCN1 (centres unmarked) [mefloquine] | 3.75 | 5.54 | 5.09 |  |
| COc1ccc(-n2nc(CCC(=O)N(C)O)cc2-c2ccc(Cl)cc2)cc1 [tepoxalin] | 4.36 | 3.75 | 6.89 |  |
| carvedilol phosphate | 5.81 | 5.43 | 6.87 |  |
| COc1cccc2c1C(=O)c1c(O)c3c(c(O)c1C2=O)C[C@@](O)(C(=O)CO)C[C@@H]3O[C@H]1C[C@H](N)[C@H](O)[C@H](C)O1 [doxorubicin] | 4.02 | 5.05 | 4.00 |  |
| CCN(CC)CCOC(=O)C(Cc1cccc2ccccc12)CC1CCCO1 (centres unmarked) [nafronyl oxalate] | 4.08 | 5.89 | 5.17 | hit in TMRM primary screen when assayed at 4 h (primary neurons [2]): nafronyl oxalate* |
| OC(CCN1CCCCC1)(c1ccccc1)C1CCCCC1 (centres unmarked) [trihexyphenidyl hydrochloride] | 6.07 | 7.08 | 5.95 | Emax (primary neurons [2]): 20%; EC50 (primary neurons [2]): 3200 nM; EC50 (primary neurons [3]): 170 nM; Emax (primary neurons [3]): 17.8% |
| CN(C)CCOC(c1ccccc1)c1ccccc1.Cn1c(=O)c2[nH]c(Cl)nc2n(C)c1=O [dimenhydrinate] | 3.98 | 4.31 | 4.94 |  |

| Compound | TMRM Primary (primary neurons [2]) [Z-scores] | TMRM Rescreen (primary neurons [2]) [Z-scores] | ATP (primary neurons [3]) [Z-scores] | further results |
| --- | --- | --- | --- | --- |
| Fc1ccc([C@@H]2CCNC[C@H]2COc2ccc3c(c2)OCO3)cc1 [paroxetine hydrochloride] | 3.53 | 3.26 | 4.41 |  |
| COC(=O)C[C@H]1C(C)(C)C(=O)[C@@H]2CC3=C(CC[C@]4(C)C3=CC(=O)O[C@H]4c3ccoc3)[C@@]1(C)C2=O [carapin-8(9)-ene] | 3.50 | 3.82 | 4.89 |  |
| CCCOc1ccc(C(=O)OCCN(CC)CC)cc1N [proparacaine hydrochloride] | 3.43 | 4.65 | 4.11 |  |
| C=CCc1ccc(O)c(OC)c1 [eugenol] | 4.17 | 3.10 | 4.39 | hit in TMRM primary screen when assayed at 4 h (primary neurons [2]): eugenol* |
| OCc1c[nH]c2ccccc12 [indole-3-carbinol] | 3.15 | 6.27 | 6.52 |  |
| c1ccc(-c2ccc(C(c3ccccc3)n3ccnc3)cc2)cc1 (centres unmarked) [bifonazole] | 3.81 | 1.84 | 4.00 |  |
| CCN(CC)CCOc1ccc(C(=C(Cl)c2ccccc2)c2ccccc2)cc1 [clomiphene citrate] | 2.94 | 3.45 | 4.20 |  |
| CC(=O)c1ccc2c(c1)N(CCCN1CCC(CCO)CC1)c1ccccc1S2 [piperacetazine] | 5.30 | 5.01 | 5.80 |  |
| CN1[C@@H](CC(=O)c2ccccc2)CCC[C@H]1C[C@H](O)c1ccccc1 [lobeline hydrochloride] | 6.62 | 6.75 | 3.67 |  |
| trimebutine maleate | 3.79 | 5.82 | 6.14 | hit in TMRM primary screen when assayed at 4 h (primary neurons [2]): trimebutine maleate* |
| CN(C/C=C/c1ccccc1)Cc1cccc2ccccc12 [naftifine hydrochloride] | 3.26 | 4.64 | 4.65 |  |
| O=C(Nc1ccccc1)OCC(CN1CCCCC1)OC(=O)Nc1ccccc1 (centres unmarked) [diperodon hydrochloride] | 3.75 | 6.07 | 8.02 |  |
| CCOC(=O)[C@H](CCc1ccccc1)N[C@H]1CCc2ccccc2N(CC(=O)O)C1=O [benazepril hydrochloride] | 3.43 | 2.43 | 5.26 |  |
| CNCCC=C1c2ccccc2CCc2ccccc21 [nortriptyline hydrochloride] | 3.77 | 5.25 | 5.66 | Emax (primary neurons [2]): 21%; EC50 (primary neurons [2]): 550 nM; EC50 (primary neurons [3]): 200 nM; Emax (primary neurons [3]): 16.5% |
| CC(CN(C)C)CN1c2ccccc2CCc2ccccc21 (centres unmarked) [trimipramine maleate] | 5.18 | 5.16 | 5.24 | Emax (primary neurons [2]): 20%; EC50 (primary neurons [2]): 360 nM; EC50 (primary neurons [3]): 180 nM; Emax (primary neurons [3]): 16.4% |
| CCN(CC)CCOC(=O)C(c1ccccc1)C1CCCCC1 (centres unmarked) [drofenine hydrochloride] | 3.68 | 5.96 | 4.84 |  |
